One data set concerns RAW264.7 cell. Kind of data set: MTT cell proliferation (cytotoxicity) assay. It is filed as cell-based. The conditions noted are these: for IC50: MTT, 36 h treatment. The protocol:
The “click” reaction conditions in click chemistry require copper sulfate and sodium ascorbate as catalysts, and the copper sulfate concentration is generally too high, which causes certain damage to the body. RAW264.7 cells were used as test cells to explore the safe concentration of copper sulfate, compounds A1–A3, and probes T1–T4. The macrophage suspension of RAW264.7 cells in the logarithmic growth stage was adjusted to 5 × 10^4 cells/mL and seeded in 96-well plates with 100 µL in each well. The cells were incubated at 37 °C and 5% CO2 for 24 h and then treated with different concentrations of copper sulfate solution (each concentration was repeated three times). After being treated with copper sulfate for 36 h, 10 µL MTT (5 mg/mL) was added to each well, and the cells were incubated at 37 °C and 5% CO2 for 4 h. Then, the MTT in the well was discarded, and 100 µL DMSO was added to each well and incubated at 37 °C for 0.5 h until the crystals were completely dissolved. The microplate reader read the OD490 nm of each well. The cytotoxicity assays of compounds A1–A3 and probes T1–T4 were the same as above. The cell proliferation inhibition rate (IC50) was calculated using SPSS 16.0 software.

The subject of data set [1] is Agrobacterium tumefaciens. Kind of data set: Antibacterial activity, LB plate microdilution test. It counts as cell-based. The conditions noted are these: for antibacterial activity: cultured for 8 h. The protocol:
The compounds A1–A3 were evaluated through the plate microdilution test according to the guidelines of the Clinical and Laboratory Standards Institute (CLSI). A colony of Agrobacterium tumefaciens grown on lysogeny broth (LB) agar plates was inoculated in lysogeny broth (LB) and incubated in an aerobic environment at 28 °C overnight (ON). The bacterial suspension was diluted to 5 × 10^7 CFU/mL, and 200 µL was added to each well, obtaining a final density of […]. Meanwhile, A1–A3 were serially diluted in 1X PBS at concentrations of 30, 50, and 100 µmol/L. Cefuroxime was used as an antibiotic control and DMSO as a solvent control. Subsequently, the plates were incubated at 28 °C in aerobiosis, and the growth rate was evaluated after 4, 6, 8, and 10 h using an ultraviolet (UV) detector.
In general terms: Broth dilution looks for growth in wells or tubes with falling amounts of substance.

A short description of data set [2]: UV-Vis absorption spectroscopy. It is filed as physicochemical. The conditions noted are these: in methanol. How it is done:
(§1) The ^1H NMR and ^13C NMR spectra were recorded at 25 °C in a Nuclear Magnetic Resonance Spectrophotometer (DRX-400, Bruker, Bremerhaven, Germany) at 400 MHz for ^1H NMR in DMSO-d6 and 100 MHz for ^13C NMR in CDCl3. Thin layer chromatography (TLC) was carried out on silica gel (GF254, Qingdao Haiyang Chemical Co., Ltd., Qingdao, China), and the spots were visualized with UV light at 254 nm. Fluorescence spectra were recorded on a fluorescence spectrophotometer (F-2710, Hitachi, Tokyo, Japan). UV-Vis spectrophotometer (UH5300, Hitachi, Tokyo, Japan) was used for the absorption measurements and the spectra were typically measured in the range of 190–1100 nm.
The sample of the compounds (A1–A3) was diluted to 1 × 10^−5 mg/mL. After thorough mixing, the target molecules were detected using a UV spectrophotometer at UV absorption wavelengths. The volume of the sample needed to be greater than 2/3 of the cuvette volume. All experiments were performed in triplicate.

Data set [3] is described as follows: Fluorescence excitation and emission spectra. It counts as physicochemical. How it is done: as §1
The sample of probes (T1–T4) was diluted to 1 × 10^−5 mg/mL for fluorescence, excitation, and emission spectra measurement by a fluorescence spectrophotometer. All experiments were performed in triplicate.

For data set [4], the system named is Agrobacterium tumefaciens. Kind of data set: Fluorescence detection of Agrobacterium tumefaciens by diagnostic molecules (click in situ, fluorescence microscope). It counts as cell-based. The conditions noted are these: inhibitor 8 h (A1 30, A2 50, A3 50 µmol/L), then same amount of probe, copper sulfate and sodium ascorbate, click 1 h; probe-only controls. The protocol: An amount of 3 mL of the standby Agrobacterium solution at a concentration of 5 × 10^3 CFU/mL was added to the shaker tube. Then, 200 µL of A1 at a concentration of 30 µmol/L, A2 at a concentration of 50 µmol/L, and A3 at a concentration of 50 µmol/L were added at 28 °C. After incubation at 200 RPM/min for 8 h, the upper layer of the medium was poured off after centrifugation and washed three times with PBS, and the bacterial solution was resuspended by adding 1 mL of medium. Then, the same amount of probe was added, and 15 µL copper sulfate and sodium ascorbate were added at a concentration of 10 µmol/L. The control group was treated with only the corresponding probe, and the concentration of each probe was the same as that of the corresponding inhibitor. After adding probes to each group, the “click” reaction was complete for 1 h. After centrifugation, the upper layer of the medium was poured off and washed three times with PBS. Then, 1 mL of the medium was added to resuspend the bacterial solution, and 10 µL was added to the slide for fluorescence microscope detection and observation of the fluorescence of Agrobacterium in each group.

Some results are limits rather than exact numbers.

Consider eight compounds from PMC10057994, “Click Triazole as a Linker for Pretargeting Strategies: Synthesis, Docking Investigations, Fluorescence Diagnosis, and Antibacterial Action Studies” (Molecules, 2023).

The term IC50 denotes the concentration needed to halve the response being measured. The low end stands for greater potency, the high end for weaker potency. In the data set with RAW264.7 cell (Mus musculus), `C#CCOc1ccc(O)c(C(=O)N/N=C/c2ccc(-c3ccccc3[N+](=O)[O-])o2)c1` [A1, (E)-2-hydroxy-N’-((5-(2-nitrophenyl)furan-2-yl)methylene)-5-(prop-2-ynyloxy)benzohydrazide] gave an IC50 of more than 98 µM. The same compound showed an antibacterial activity in data set [1] (30 µmol/L) of 35%. Moreover, in data set [2], the “absorption maxima (λmax)” value turned out to be 352 nm.

`C#CCNc1cccc(C(=O)N/N=C/c2ccc(-c3ccccc3[N+](=O)[O-])o2)c1` [A2, (E)-N’-((5-(2-nitrophenyl)furan-2-yl)methylene)-3-(prop-2-ynylamino)benzohydrazide] gave an IC50 in the data set with RAW264.7 cell (Mus musculus) of more than 96 µM. In data set [1] (50 µmol/L), this compound registered an antibacterial activity of 45%. Further, the “antibacterial activity (in words)” value in data set [1] (Agrobacterium tumefaciens, 30-100 µmol/L, 4-10 h) is “better antibacterial activity than A1 and A3”. Moreover, the “absorption maxima (λmax)” value in data set [2] is reported as 332 nm.

Take `[N-]=[N+]=NCCOc1ccc(O)c(C(=O)N/N=C/c2ccc(-c3ccccc3[N+](=O)[O-])o2)c1` [A3, (E)-5-(2-azidoethoxy)-2-hydroxy-N’-((5-(2-nitrophenyl)furan-2-yl)methylene)benzohydrazide]: the 50% inhibitory concentration (IC50) in the data set on RAW264.7 cell (Mus musculus) was more than 100 µM. This compound displayed an antibacterial activity in data set [1] (50 µmol/L) of 35%. In data set [2], the “absorption maxima (λmax)” value is 346 nm.

`[N-]=[N+]=NCCOc1ccc(/C=N/c2ccccc2OCc2ccccc2[N+](=O)[O-])c(O)c1` [T1, (E)-2-((2-(2-nitrobenzyloxy)phenylimino)methyl)-5-(2-azidoethoxy)phenol] gave an IC50 with RAW264.7 cell (Mus musculus) of more than 100 µM. For the same compound, in data set [3], the best emission wavelength is listed as 310 nm and the best excitation wavelength came to 273 nm.

Consider `C#CCOc1ccc(/C=N/c2ccccc2O)c(O)c1` [T2, (E)-2-((2-hydroxyphenylimino)methyl)-5-(prop-2-ynyloxy)phenol], for which the IC50 in the data set on RAW264.7 cell (Mus musculus) was more than 92 µM. Moreover, in data set [3], the best emission wavelength was 315 nm and the best excitation wavelength is 273 nm.

For orientation: melting point means the temperature of the solid-liquid transition. `C#CCOc1ccc(-c2nc3ccccc3s2)c(O)c1` [T3, 2-(benzo[d]thiazol-2-yl)-5-(prop-2-ynyloxy)phenol]: the melting point lay in the range of 179 to 180 °C. Also, the IC50 with RAW264.7 cell (Mus musculus) was more than 100 µM. Further, the “fluorescence of Agrobacterium tumefaciens” value in data set [4] is “did not emit fluorescence”. In addition, in data set [3], the best emission wavelength was 377 nm and the best excitation wavelength stood at 327 nm.

In the data set on RAW264.7 cell (copper sulfate concentration 12 µmol/L), `O=S(=O)([O-])[O-].[Cu+2]` [copper sulfate] yielded a cell survival rate of 80%.

In the data set on RAW264.7 cell, “(E)-5-(3-azidopropoxy)-2-((2-hydroxyphenylimino)methyl)phenol [T4]” came in with an IC50 of more than 87 µM. Also, the “fluorescence of Agrobacterium tumefaciens” value in data set [4] was “did not emit fluorescence”. In addition, in data set [3], the best emission wavelength stood at 313 nm and the best excitation wavelength worked out at 272 nm.
